Reference: patent USRE48461E1, “Modulation of androgen receptor expression” (Ionis Pharmaceuticals, Inc., priority 2012, dated 2021)
Oligonucleotides are written 5' to 3', each unit as a sugar letter and its base; * is a phosphorothioate linkage, no mark a phosphodiester; rarer units and linkages stand in square brackets, end groups in braces. Plain capitals give the bases only. k = constrained ethyl (cEt); [5mC] = 5-methylcytosine; d = 2'-deoxy (DNA)

Legend:
[1] = tested on: AR mRNA; experiment: Antisense inhibition of human AR in HuVEC cells, single concentration (electroporation, qRT-PCR RTS3559); format: cell-based
Procedure, shortened: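 AR mRNA levels were measured with human primer-probe set RTS3559 and adjusted for total RNA (RIBOGREEN). Cells were HuVEC, with each antisense oligonucleotide delivered by electroporation at one concentration.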

[2] = tested on: AR mRNA; experiment: Dose-dependent antisense inhibition of human AR in HuVEC cells (electroporation, qRT-PCR RTS3559, IC50); format: cell-based; details: HuVEC, electroporation, approximately 16 hours
Procedure, shortened: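 HuVEC cells dosed with antisense oligonucleotides by electroporation and treated approximately 16 hours. AR mRNA quantified by real-time qPCR with primer probe set RTS3559 and normalised to total RNA by RIBOGREEN; IC50 from dose-response.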

[3] = Table 20, 500 nM oligonucleotide, electroporation, approximately 24 hours, relative to untreated control

583865 (kT*kT*k[5mC]*dA*dG*dT*dG*d[5mC]*dT*d[5mC]*dT*dT*dG*k[5mC]*k[5mC]*kT; antisense) [compound 583865]
% inhibition [1, 3]: 45% | percent inhibition of AR, 46.9 nM ([2]; Table 32): 33% | percent inhibition of AR, 187.5 nM ([2]; Table 32): 42% | percent inhibition of AR, 750.0 nM ([2]; Table 32): 68% | percent inhibition of AR, 3000.0 nM ([2]; Table 32): 85% | IC50 ([2]; Table 32): 190 nM

583853 (kT*kG*k[5mC]*dA*dT*dT*d[5mC]*dG*dG*d[5mC]*d[5mC]*dA*dA*kT*kG*kG; antisense) [compound 583853]
% inhibition [1, 3]: 33% | percent inhibition of AR, 46.9 nM ([2]; Table 33): 24% | percent inhibition of AR, 187.5 nM ([2]; Table 33): 51% | percent inhibition of AR, 750.0 nM ([2]; Table 33): 70% | percent inhibition of AR, 3000.0 nM ([2]; Table 33): 80% | IC50 ([2]; Table 33): 210 nM

584165 (kT*k[5mC]*kA*dA*dT*d[5mC]*dT*dA*dG*dA*dT*dA*d[5mC]*k[5mC]*kA*kT; antisense) [compound 584165]
% inhibition ([1]; Table 24, 1,000 nM oligonucleotide, electroporation, approximately 24 hours, relative to untreated control): 70% | percent inhibition of AR, 46.9 nM ([2]; Table 36): 12% | percent inhibition of AR, 187.5 nM ([2]; Table 36): 34% | percent inhibition of AR, 750.0 nM ([2]; Table 36): 66% | percent inhibition of AR, 3000.0 nM ([2]; Table 36): 89% | IC50 ([2]; Table 36): 300 nM

583712 (antisense k[5mC]*k[5mC]*kT*dT*dG*dA*dG*d[5mC]*dT*dT*dG*dG*d[5mC]*kT*kG*kA) [compound 583712]
% inhibition ([1]; 500 nM ASO, ~24 h, Table 18): 37% | percent inhibition of AR, 46.9 nM ([2]; Table 30): 15% | percent inhibition of AR, 187.5 nM ([2]; Table 30): 47% | percent inhibition of AR, 750.0 nM ([2]; Table 30): 72% | percent inhibition of AR, 3000.0 nM ([2]; Table 30): 78% | IC50 ([2]; Table 30): 290 nM

583571 (antisense kT*k[5mC]*kA*dG*dT*d[5mC]*d[5mC]*dT*dA*d[5mC]*d[5mC]*dA*dG*kG*k[5mC]*kA) [compound 583571]
% inhibition ([1]; 500 nM ASO, ~24 h, Table 16): 43% | percent inhibition of AR, 46.9 nM ([2]; Table 29): 18% | percent inhibition of AR, 187.5 nM ([2]; Table 29): 36% | percent inhibition of AR, 750.0 nM ([2]; Table 29): 53% | percent inhibition of AR, 3000.0 nM ([2]; Table 29): 59% | IC50 ([2]; Table 29): 800 nM

583919 (kG*kT*kA*dG*dT*d[5mC]*dG*d[5mC]*dG*dA*d[5mC]*dT*d[5mC]*kT*kG*kG; antisense) [compound 583919]
% inhibition ([1]; Table 21, 500 nM oligonucleotide, electroporation, approximately 24 hours, relative to untreated control): 55% | percent inhibition of AR, 46.9 nM ([2]; Table 33): 27% | percent inhibition of AR, 187.5 nM ([2]; Table 33): 60% | percent inhibition of AR, 750.0 nM ([2]; Table 33): 85% | percent inhibition of AR, 3000.0 nM ([2]; Table 33): 91% | IC50 ([2]; Table 33): 140 nM

583996 (k[5mC]*kG*k[5mC]*d[5mC]*dA*dG*dG*dG*dT*dA*d[5mC]*d[5mC]*dA*k[5mC]*kA*k[5mC]; antisense) [compound 583996]
% inhibition ([1]; Table 22, 500 nM oligonucleotide, electroporation, approximately 24 hours, relative to untreated control): 33% | percent inhibition of AR, 46.9 nM ([2]; Table 34): 26% | percent inhibition of AR, 187.5 nM ([2]; Table 34): 12% | percent inhibition of AR, 750.0 nM ([2]; Table 34): 50% | percent inhibition of AR, 3000.0 nM ([2]; Table 34): 70% | IC50 ([2]; Table 34): 710 nM

583747 (antisense kG*k[5mC]*kT*dG*d[5mC]*dG*d[5mC]*dT*d[5mC]*dG*d[5mC]*dG*dG*k[5mC]*k[5mC]*kT) [compound 583747]
% inhibition ([1]; 500 nM ASO, ~24 h, Table 18): 35% | percent inhibition of AR, 46.9 nM ([2]; Table 31): 13% | percent inhibition of AR, 187.5 nM ([2]; Table 31): 38% | percent inhibition of AR, 750.0 nM ([2]; Table 31): 50% | percent inhibition of AR, 3000.0 nM ([2]; Table 31): 69% | IC50 ([2]; Table 31): 640 nM

583847 (kA*k[5mC]*kA*dG*d[5mC]*dG*dG*dG*dT*dG*dG*dA*dA*k[5mC]*kT*k[5mC]; antisense) [compound 583847]
% inhibition [1, 3]: 34% | percent inhibition of AR, 46.9 nM ([2]; Table 33): 8% | percent inhibition of AR, 187.5 nM ([2]; Table 33): 30% | percent inhibition of AR, 750.0 nM ([2]; Table 33): 60% | percent inhibition of AR, 3000.0 nM ([2]; Table 33): 84% | IC50 ([2]; Table 33): 460 nM

584245 (kA*kG*kG*dT*dT*dA*dG*dG*dG*dA*dG*dT*dA*kG*kG*k[5mC]; antisense) [compound 584245]
% inhibition ([1]; Table 25, 1,000 nM oligonucleotide, electroporation, approximately 24 hours, relative to untreated control): 70% | percent inhibition of AR, 46.9 nM ([2]; Table 36): 4% | percent inhibition of AR, 187.5 nM ([2]; Table 36): 33% | percent inhibition of AR, 750.0 nM ([2]; Table 36): 69% | percent inhibition of AR, 3000.0 nM ([2]; Table 36): 90% | IC50 ([2]; Table 36): 320 nM
